Paper PMC4784473 (Bioorganic & medicinal chemistry letters, 2008)

How the values were obtained:
M. tuberculosis DXS = M. tuberculosis DXS (Mycobacterium tuberculosis, UniProt P9WNS3); experiment: biochemical; format: biochemical; details: for inhibitory activity against M. tuberculosis DXS (in words): SAR discussion
Vero cells = experiment: Vero cell cytotoxicity; format: cell-based; details: Vero cell toxicity versus M. tuberculosis growth inhibition

Sequence of M. tuberculosis DXS (P9WNS3 whole entry): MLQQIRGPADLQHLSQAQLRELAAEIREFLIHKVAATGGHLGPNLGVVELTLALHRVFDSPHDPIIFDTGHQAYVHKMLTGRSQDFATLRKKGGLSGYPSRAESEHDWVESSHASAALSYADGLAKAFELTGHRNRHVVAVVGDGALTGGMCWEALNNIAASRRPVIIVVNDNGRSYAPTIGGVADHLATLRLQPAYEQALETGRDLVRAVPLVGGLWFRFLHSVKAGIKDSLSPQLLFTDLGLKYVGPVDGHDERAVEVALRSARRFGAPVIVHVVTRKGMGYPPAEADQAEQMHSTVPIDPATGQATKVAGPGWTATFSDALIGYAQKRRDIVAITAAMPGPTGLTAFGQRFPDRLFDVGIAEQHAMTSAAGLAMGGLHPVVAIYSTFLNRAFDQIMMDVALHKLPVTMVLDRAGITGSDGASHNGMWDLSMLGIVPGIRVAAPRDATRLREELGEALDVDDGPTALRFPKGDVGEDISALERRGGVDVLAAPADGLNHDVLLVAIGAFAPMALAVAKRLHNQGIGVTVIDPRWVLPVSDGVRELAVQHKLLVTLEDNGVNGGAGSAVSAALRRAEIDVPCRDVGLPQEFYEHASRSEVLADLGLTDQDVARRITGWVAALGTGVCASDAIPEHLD

SMILES | inhibitory activity against M. tuberculosis DXS (in words) (M. tuberculosis DXS) | also measured
COCc1cc(=O)n2ncc(-c3ccc(Cl)cc3)c2[nH]1 [Compound 2] | inhibitory activity was abolished | 
Cc1cc(=O)n2ncc(-c3ccc(Cl)cc3)c2[nH]1 [Compound 3] | inhibitory activity was abolished | 
CCOC(=O)Cc1c(C)nc2c(-c3ccccc3)cnn2c1O [Compound 4] | lost its activity | 
COc1ccc(-c2cc(=O)n3nc(C)c(-c4ccc(Cl)cc4)c3[nH]2)cc1 [Compound 18] |  | selectivity index (Vero cells): 2.1
COc1ccc(-c2cc(=O)n3nc(C)c(-c4ccc(F)cc4)c3[nH]2)cc1 [Compound 19, 2-methyl-3-(4-fluorophenyl)-5-(4-meth-oxy-phenyl)-4H-pyrazolo[1,5-a]pyrimidin-7-one] |  | selectivity index (Vero cells): 4.6
COCc1cc(=O)n2nc(C)c(-c3ccc(Cl)cc3)c2[nH]1 [Compound 25] | loss in activity | 
CCCc1c(-c2ccccc2)[nH]c2c(-c3ccccc3)c(C)nn2c1=O [Compound 27] |  | IC50 (M. tuberculosis DXS): 71.9 ± 10.1 µM
